# Read-outs that look alike come from different tables or passages of the source. Marks after values point to notes of the source that are not given here.
# Key:
# plasma protein = experiment: Plasma protein binding and release in vitro (ADMET); format: in vitro ADME; settings: for Binding to plasma protein / Release of plasma protein: in vitro
# From the text: (§1) Objective: To investigate the Absorption, Distribution, Metabolism, Excretion and Toxicity (abbreviated as: ADMET) of OBR 5-340 in vitro, as well as in vitro tests on the plasma protein binding and the stability in the plasma and in liver microsomes. Tests: The In vitro tests performed with CRCV-340 as well as the data obtained are summarised in Table 2 in comparison with Ref. 2.
# [1] = Plasma stability in vitro (ADMET); format: in vitro ADME
# From the text: as §1
# [2] = Stability in liver microsomes in vitro (ADMET); format: in vitro ADME; settings: for Stability in liver microsomes: in vitro
# From the text: as §1
# [3] = Pharmacokinetics in mice, single per os application, HPLC of plasma; format: in vivo; settings: for half-life / AUC(0-inf) / Tmax / AUC(0-t) / Cmax / MRT: mouse, po; for half-life: read-out: T1/2 (half life) (converted); for AUC(0-inf): read-out: AUC0-∞ (area under curve); for Tmax: read-out: Tmax (time to reach the maximum concentration in the blood); for AUC(0-t): read-out: AUC0-t (area under curve); for Cmax: read-out: Cmax (maximum concentration in the blood); for MRT: read-out: MRT (mean residence time)
# Method: Tests: Substance and reference substance were applied respectively once in a concentration of 100 mg/kg KG, in 0.5 ml of a 10% Cremophor solution per os to the mice, After 0.5, 1, 2, 3, 4, 5, 6 and 7 hrs serum was taken and by means of HPLC analysis the concentrations of CRCV-340, Ref-2 and Ref-3 determined in the plasma of the mice.
# Using the substance concentrations in the blood plasma determined by HPLC the pharmacokinetic parameters of the substances were calculated using the computer program ESTRIP (Table 3).
# [4] = Acute toxicity in mice after single peroral administration; format: in vivo; settings: for LD50 at 72 h: mouse, in vivo; for LD50 at 72 h / LD50: single peroral administration
# Method: Tests: The acute toxicity of the substance CRCV-340 was tested in mice 19.5-20.5 g in weight, which was administered per os 40, 60, 80 or 120 mg substance/mouse (per 5 mice per substance and concentration). This corresponds to a dose of approx. 2 g, 3 g, 4 g or 6 g per kilogramme body weight. The toxic effects observed in the result correlated to the substance dose administered.
# [5] = Subacute toxicity in mice over 28 days, intragastric; format: in vivo; settings: mice, 12.5, 50 or 200 mg/kg once a day over 28 days
# Method: Objective: To determine the subacute toxicity in mice in order to reveal possible side effects e.g. on general condition, weight, internal organs and metabolism, which could arise with subacute administration of CRCV-340 over 28 days.
# Tests: Thus male and female mice weighing approx. 20 g received 12.5, 50 or 200 mg/kg of the substance CRCV-340 in a Cremophor formulation or the control group received Cremophor once a day over 28 days intragastrically administered via a tube. During the total period of the experiment the condition of the coat and the mucous membranes, the excreta and the general condition were assessed. The recording of the weight took place on days 7, 14, 21 and 28. Approx. 24 hrs. after the last substance dose the sense of direction of the animals was examined. The following biochemical parameters in the serum were analysed: protein content, urea, creatinine, the serum activity of aspartate aminotransferase, alanine aminotransferase and alkaline phosphatase. The haemoglobin concentration, hematocrit, the number of red and white blood cells as well as the platelets was determined in the blood smear. At the end of the experiment the mice were killed under anaesthetic and dissected, the condition of the internal organs were assessed macroscopically, the organ weight determined and samples for subsequent histological tests put into formalin.
# [6] = system: human rhinovirus serotypes (HRV); experiment: zpE (cytopathic effect) inhibitory test with HRV serotypes; format: cell-based; settings: for IC50: Human rhinovirus sp.; for Number of sensitive HRV: of 50 examined serotypes
# From the text: (§2) Objective: To determine the antiviral effective spectrum of CRCV-340 in respect of 50 different human rhinovirus serotypes and CVB3 patient isolates.
# (§3) Tests: The 50 HRV serotypes and 20 clinical CVB3 isolates were reproduced in HeLa, HeLa Wis and/or LF cells, their titre determined and the serotype verified using sequencing. Accordingly zpE (zytopathic effect) inhibitory tests with the HRV or plaque-reductions tests with the CVB3 isolates were established. In the corresponding antiviral tests dose effect investigations with Ref-3 and CRCV-340 were carried out. Tables 5 and 6 give an overview of the mean 50% inhibitory concentrations.
# clinical CVB3 isolates = experiment: Plaque-reduction test with clinical CVB3 isolates; format: cell-based; settings: for IC50: Enterovirus B, CVB3; for Number of sensitive CVB3: of 20 clinical isolates, CRCV-340 maximum tested concentration 13.5 μM
# From the text: as §2, §3
# CVB3 31-1-93 [7] = experiment: Mouse model of CVB3-induced chronic myocarditis; format: in vivo; settings: CVB3 31-1-93-infected NMRI mice, 100 mg/kg once or twice a day over 7 days
# Method: Investigations: The effect of CRCV-340 was investigated in the model of CVB 3-induced myocarditis in 8-week old male NMRI mice. In addition CVB3 31-1-93 or CVB3 H3-infected animals received once or twice a day 100 mg/kg of the substance in 50% or 20% PEG-400 in 1% CMC in water (placebo) administered over 7 days. Parameters to evaluate the therapeutic effect included changes in body weight, general condition, virus titre in heart and pancreas tissue as well as histopathological changes in the heart and pancreas. Pseudo-infected, placebo-treated or CRCV-340-treated animals served as a negative control and infected, placebo- or pleconaril-treated animals as a positive control over the course of the infection.
# CVB3 31-1-93 [8] = experiment: Lethal mouse model of CVB3-induced myocarditis; format: in vivo; settings: CVB3 31-1-93-infected BALB/c mice, 100 mg/kg twice a day over 7 days
# Method: Investigations: The effect of the development candidate CRCV-340 was examined following testing of the infection dose in the model of the CVB 3-induced myocarditis in 6-7 weeks old male BALB/c mice. In addition CVB3 31-1-93 or CVB3 H3-infected animals received twice a day 100 mg/kg of the substance in 20% PEG-400 in 1% CMC in water (placebo) administered over 7 days. Changes in body weight, general condition and the lethality defined through the surrogate marker 25% loss of body weight served as parameters to evaluate the therapeutic effect. Pseudo-infected, placebo-treated or CRCV-340-treated animals represented the negative control and infected, placebo- or pleconaril-treated animals the positive control over the course of the infection.
# [9] = in vivo; cited from earlier work
# [10] = in vivo; cited from earlier work; remark: listed apart in the source
# [11] = mice, single intragastric 100 mg/kg
# [12] = plasma, mice, single intragastric 100 mg/kg
# [13] = single peroral dose 40 mg/mouse
# [14] = single peroral dose 60 mg/mouse
# [15] = single peroral dose 80 mg/mouse
# [16] = single peroral dose 120 mg/mouse
# [17] = read-out: IC50 Pleconaril-resistant HRV (n = 5), mean
# [18] = read-out: IC50 Pleconaril-sensitive HRV (n = 45), mean
# [19] = read-out: IC50 all HRV (n = 50), mean
# [20] = mean over 19 pleconaril-sensitive isolates, read-out: IC50 Pleconaril-sensitive CVB3 (n = 19), mean
# [21] = mean over all 20 clinical isolates, read-out: IC50 all CVB3 (n = 20), mean
# [22] = the one pleconaril-resistant isolate, read-out: IC50 Pleconaril-resistant CVB3 (n = 1)
compound,measurement,setting,value
"Nc1nc(-c2ccccc2)nc2[nH]nc(Nc3ccc(C(F)(F)F)cc3)c12 [CRCV-340, 4-amino-3-(4-trifluormethyl-phenyl)amino-6-phenylpyrazolo[3,4-d]pyrimidine]","Release of plasma protein, comparison in words",plasma protein; in comparison with Ref-2,increased release of plasma protein
same,Binding to plasma protein,plasma protein,96.7%
same,Release of plasma protein,plasma protein,122.3%
same,Plasma stability,[1],100.0%
same,"Stability in liver microsomes, comparison in words",[2]; compared with Ref-2 / state-of-the-art substances,better stability in liver microsomes
same,Stability in liver microsomes,[2],112.0%
same,"Bioavailability in mice, comparison in words",[3]; compared with Ref-2 and Ref-3 / state-of-the-art substances,significantly better bioavailability
same,Cmax (maximum concentration in the blood),[3]; [11],1.2544 µg/mL
same,MRT (mean residence time),[3]; [11],3.54 h
same,half-life,"[3]; in vivo, mice, single intragastric 100 mg/kg",3.54 h
same,AUC(0-inf),[3]; [12],9.6 µg·h/mL
same,Tmax,[3]; [12],3 h
same,LD50 at 72 h,[4],3120 mg/kg
same,LD50,[4],62.4 mg/mouse
same,Dead/Surviving 72 hrs after administration,[4]; [13],1/5
same,Dead/Surviving 72 hrs after administration,[4]; [14],1/5
same,Dead/Surviving 72 hrs after administration,[4]; [15],3/5
same,Dead/Surviving 72 hrs after administration,[4]; [16],5/5
same,Tolerance on subacute administration,[5],extremely good tolerance
same,Effective spectrum in respect of HRV in comparison to Ref-3,[6]; 50 HRV serotypes,significantly broader
same,IC50,[6]; [17],22.6 µM
same,IC50,[6]; [18],26.1 µM
same,IC50,[6]; [19],25.7 µM
same,Number of sensitive HRV,[6],49
same,IC50,clinical CVB3 isolates; [20],5.16 µM
same,IC50,clinical CVB3 isolates; [21],4.97 µM
same,IC50,clinical CVB3 isolates; [22],1.39 µM
same,Number of sensitive CVB3,clinical CVB3 isolates,18*
same,"Therapeutic effect (body weight, general condition, virus titre in heart and pancreas, histopathology)",CVB3 31-1-93 [7],effective
same,"Therapeutic effect (body weight, general condition, lethality)",CVB3 31-1-93 [8],effective
Nc1nc(-c2ccccc2C(F)(F)F)nc2[nH]nc(Nc3ccc(Cl)cc3)c12 [MS-116],melting point,,271 to 273 °C
"Nc1nc(-c2ccccc2)nc2[nH]nc(Nc3ccccc3)c12 [Ref-2, 4-amino-3-(phenylamino)-6-phenylpyrazolo[3,4-d]pyrimidine]",Binding to plasma protein,plasma protein,99.5%
same,Release of plasma protein,plasma protein,61.0%
same,Plasma stability,[1],117.0%
same,Stability in liver microsomes,[2],32.0%
same,AUC(0-t),[3]; [12],2.35 µg·h/mL
same,AUC(0-inf),[3]; [12],2.73 µg·h/mL
same,Cmax,[3]; [12],1.3 µg/mL
same,MRT,[3]; [12],2.14 h
same,half-life,[3]; [12],2.96 h
same,Tmax,[3]; [12],1 h
same,LD50 at 72 h,[4],3930 mg/kg
same,LD50,[4],78.6 mg/mouse
same,Dead/Surviving 72 hrs after administration,[4]; [13],0/5
same,Dead/Surviving 72 hrs after administration,[4]; [14],1/5
same,Dead/Surviving 72 hrs after administration,[4]; [15],3/5
same,Dead/Surviving 72 hrs after administration,[4]; [16],4/5
Cc1cc(CCCCCCCOc2ccc(C3=NCCO3)cc2)on1 [disoxaril],Bioavailability,[9],low bioavailability
same,Metabolisation and excretion,[10],fast metabolisation and excretion
Cc1cc(CCCOc2c(C)cc(-c3noc(C(F)(F)F)n3)cc2C)on1 [pleconaril],"Therapeutic effect (body weight, general condition, virus titre in heart and pancreas, histopathology)",CVB3 31-1-93 [7],in contrast to the placebo and pleconaril CRCV-340 was effective
same,"Therapeutic effect (body weight, general condition, lethality)",CVB3 31-1-93 [8],In contrast to the placebo and pleconaril CRCV-340 was effective
same,Bioavailability,[9],very good oral bioavailability
"Nc1nc(-c2ccccc2)nc2[nH]nc(Nc3ccc(F)cc3)c12 [Ref-5, 4-amino-3-[(4-fluorophenyl)amino]-6-phenylpyrazolo[3,4-d]pyrimidine]",melting point,,262 to 263 °C
Nc1nc(-c2cc(C(F)(F)F)cc(C(F)(F)F)c2)nc2[nH]nc(Nc3ccc(Cl)cc3)c12 [MS-115],melting point,,272 to 274 °C
"Nc1nc(-c2ccccc2)nc2[nH]nc(Nc3ccc(Cl)cc3)c12 [Ref-3, 4-amino-3-(4-chlorphenyl)amino-6-phenylpyrazolo[3,4-d]pyrimidine]",AUC(0-t),[3]; [12],1.09 µg·h/mL
same,AUC(0-inf),[3]; [12],1.09 µg·h/mL
same,Cmax,[3]; [12],0.424 µg/mL
same,MRT,[3]; [12],2.44 h
same,half-life,[3]; [12],1.47 h
same,Tmax,[3]; [12],0.5 h
same,IC50,[6]; [17],0.07 µM
same,IC50,[6]; [18],18.5 µM
same,IC50,[6]; [19],16.1 µM
same,Number of sensitive HRV,[6],23
same,IC50,clinical CVB3 isolates; [20],0.71 µM
same,IC50,clinical CVB3 isolates; [21],0.68 µM
same,IC50,clinical CVB3 isolates; [22],0.13 µM
same,Number of sensitive CVB3,clinical CVB3 isolates,20
Nc1nc(-c2cccc(C(F)(F)F)c2)nc2[nH]nc(Nc3ccccc3)c12 [MS-117],melting point,,230 to 232 °C

# From patent US9790225B2, “4-amino-3-phenylamino-6-phenylpyrazolo[3,4-d]pyrimidine derivatives, their manufacture and their use as antiviral active substances” (Scandion Oncology A/S, priority 2011, dated 2017)
